Measurements as given in ChEMBL document CHEMBL1833834, “Clonal Rett Syndrome cell lines to test compounds for activation of wild-type MeCP2 expression” (Bioorg Med Chem Lett, 2011).
Calls of active or inactive are those of the source. The rule behind the calls is not given here.

Assays:
Assay type in all cases: functional, cell-based
[1] = Reactivation of MeCp2 […] expression in human GM11272 cells at 10 to 100 nM by PCR method
[2] = Reactivation of MeCp2 […] expression in human GM11272 cells at 1 to 10000 nM by PCR method
[3] = Reactivation of MeCp2 […] expression in human GM11272 cells at 1 to 100 nM by PCR method
[4] = Reactivation of MeCp2 […] expression in human GM11272 cells after 6 days by PCR method

SMILES | Activity [3] | Activity [4] | also measured
O=C(O)[C@H](Cc1c[nH]c2ccccc12)N1C(=O)c2ccccc2C1=O |  |  | Activity [1]: inactive
CCCC(CCC)C(=O)O |  |  | Activity [2]: inactive
Cc1[nH]c2ccccc2c1CCNCc1ccc(/C=C/C(=O)NO)cc1 | inactive |  | 
CCC(=O)CCCCC[C@@H]1NC(=O)[C@H]2CCCCN2C(=O)[C@H]([C@@H](C)CC)NC(=O)[C@H](Cc2cn(OC)c3ccccc23)NC1=O |  | inactive | 
O=C(CCCCCCC(=O)Nc1ccccc1)NO |  |  | Activity [1]: inactive
Nc1ncn([C@H]2C[C@H](O)[C@@H](CO)O2)c(=O)n1 | inactive | inactive | 
Nc1ccccc1NC(=O)c1ccc(CNC(=O)OCc2cccnc2)cc1 |  | inactive | 
O=c1ncccn1[C@@H]1O[C@H](CO)[C@@H](O)[C@H]1O | inactive |  | 
CC(/C=C/C(=O)NO)=C\[C@@H](C)C(=O)c1ccc(N(C)C)cc1 | inactive |  | 
